Data published in ChEMBL document CHEMBL1921774, “Evaluation of 18F-labeled benzodioxine piperazine-based dopamine D4 receptor ligands: lipophilicity as a determinate of nonspecific binding” (J Med Chem, 2011).

Legend:
Brain [1] = experiment: Drug metabolism in NMRI mouse brain at […], iv measured 10 mins post injection; assay type: ADME, organism-based; details: in vivo
Bone [2] = experiment: Biodistribution in NMRI mouse bone at 1.1 to 2.6 MBq, iv after 30 mins by gamma counting; assay type: ADME, organism-based, Bone element; details: in vivo, 0.5 h
Lung [3] = experiment: Biodistribution in NMRI mouse lung at 1.1 to 2.6 MBq, iv after 10 mins by gamma counting; assay type: ADME, organism-based; details: in vivo
Spleen [4] = experiment: Biodistribution in NMRI mouse spleen at 1.1 to 2.6 MBq, iv after 10 mins by gamma counting; assay type: ADME, organism-based; details: in vivo
Spleen [5] = experiment: Biodistribution in NMRI mouse spleen at 1.1 to 2.6 MBq, iv after 15 mins by gamma counting; assay type: ADME, organism-based; details: in vivo, 0.25 h
Pancreas [6] = experiment: Biodistribution in NMRI mouse pancreas at 1.1 to 2.6 MBq, iv after 15 mins by gamma counting; assay type: ADME, organism-based; details: in vivo, 0.25 h
Bone [7] = experiment: Biodistribution in NMRI mouse bone at 1.1 to 2.6 MBq, iv after 5 mins by gamma counting; assay type: ADME, organism-based, Bone element; details: in vivo
Lung [8] = experiment: Biodistribution in NMRI mouse lung at 1.1 to 2.6 MBq, iv after 15 mins by gamma counting; assay type: ADME, organism-based; details: in vivo, 0.25 h
Blood [9] = experiment: Biodistribution in NMRI mouse blood at 1.1 to 2.6 MBq, iv after 30 mins by gamma counting; assay type: ADME, organism-based; details: in vivo, 0.5 h
[10] = Chemical stability of the compound on […] oxide gel on TLC plate assessed as half life; assay type: physicochemical
Liver [11] = experiment: Biodistribution in NMRI mouse liver at 1.1 to 2.6 MBq, iv after 15 mins by gamma counting; assay type: ADME, organism-based; details: in vivo, 0.25 h
Heart [12] = experiment: Biodistribution in NMRI mouse heart at 1.1 to 2.6 MBq, iv after 5 mins by gamma counting; assay type: ADME, organism-based; details: in vivo
Bone [13] = experiment: Biodistribution in NMRI mouse bone at 1.1 to 2.6 MBq, iv after 15 mins by gamma counting; assay type: ADME, organism-based, Bone element; details: in vivo, 0.25 h
Heart [14] = experiment: Biodistribution in NMRI mouse heart at 1.1 to 2.6 MBq, iv after 15 mins by gamma counting; assay type: ADME, organism-based; details: in vivo, 0.25 h
Liver [15] = experiment: Biodistribution in NMRI mouse liver at 1.1 to 2.6 MBq, iv after 10 mins by gamma counting; assay type: ADME, organism-based; details: in vivo
Kidney [16] = experiment: Biodistribution in NMRI mouse kidney at 1.1 to 2.6 MBq, iv after 15 mins by gamma counting; assay type: ADME, organism-based; details: in vivo, 0.25 h
Kidney [17] = experiment: Biodistribution in NMRI mouse kidney at 1.1 to 2.6 MBq, iv after 10 mins by gamma counting; assay type: ADME, organism-based; details: in vivo
Pancreas [18] = experiment: Biodistribution in NMRI mouse pancreas at 1.1 to 2.6 MBq, iv after 5 mins by gamma counting; assay type: ADME, organism-based; details: in vivo
Intestine [19] = experiment: Biodistribution in NMRI mouse intestine at 1.1 to 2.6 MBq, iv after 10 mins by gamma counting; assay type: ADME, organism-based; details: in vivo
Brain [20] = experiment: Biodistribution in NMRI mouse brain at 1.1 to 2.6 MBq, iv after 10 mins by gamma counting; assay type: ADME, organism-based; details: in vivo
Pancreas [21] = experiment: Biodistribution in NMRI mouse pancreas at 1.1 to 2.6 MBq, iv after 10 mins by gamma counting; assay type: ADME, organism-based; details: in vivo
Brain [22] = experiment: Biodistribution in NMRI mouse brain at 1.1 to 2.6 MBq, iv after 5 mins by gamma counting; assay type: ADME, organism-based; details: in vivo
Kidney [23] = experiment: Biodistribution in NMRI mouse kidney at 1.1 to 2.6 MBq, iv after 5 mins by gamma counting; assay type: ADME, organism-based; details: in vivo
Intestine [24] = experiment: Biodistribution in NMRI mouse intestine at 1.1 to 2.6 MBq, iv after 15 mins by gamma counting; assay type: ADME, organism-based; details: in vivo, 0.25 h
Lung [25] = experiment: Biodistribution in NMRI mouse lung at 1.1 to 2.6 MBq, iv after 5 mins by gamma counting; assay type: ADME, organism-based; details: in vivo
Liver [26] = experiment: Biodistribution in NMRI mouse liver at 1.1 to 2.6 MBq, iv after 5 mins by gamma counting; assay type: ADME, organism-based; details: in vivo
Serum = experiment: Metabolic stability in NMRI mouse serum assessed as remaining radioactivity at 1.1 to 2.6 MBq, iv by TLC analysis; assay type: ADME, organism-based; details: in vivo
Liver [27] = experiment: Biodistribution in NMRI mouse liver at 1.1 to 2.6 MBq, iv after 30 mins by gamma counting; assay type: ADME, organism-based; details: in vivo, 0.5 h
Pancreas [28] = experiment: Biodistribution in NMRI mouse pancreas at 1.1 to 2.6 MBq, iv after 30 mins by gamma counting; assay type: ADME, organism-based; details: in vivo, 0.5 h
Intestine [29] = experiment: Biodistribution in NMRI mouse intestine at 1.1 to 2.6 MBq, iv after 30 mins by gamma counting; assay type: ADME, organism-based; details: in vivo, 0.5 h
Brain [30] = experiment: Biodistribution in NMRI mouse brain at 1.1 to 2.6 MBq, iv after 30 mins by gamma counting; assay type: ADME, organism-based; details: in vivo, 0.5 h
Heart [31] = experiment: Biodistribution in NMRI mouse heart at 1.1 to 2.6 MBq, iv after 30 mins by gamma counting; assay type: ADME, organism-based; details: in vivo, 0.5 h
[32] = Chemical stability of the compound on silica gel on TLC plate assessed as half life; assay type: physicochemical
Blood [33] = experiment: Biodistribution in NMRI mouse blood at 1.1 to 2.6 MBq, iv after 10 mins by gamma counting; assay type: ADME, organism-based; details: in vivo
Spleen [34] = experiment: Biodistribution in NMRI mouse spleen at 1.1 to 2.6 MBq, iv after 30 mins by gamma counting; assay type: ADME, organism-based; details: in vivo, 0.5 h
Blood [35] = experiment: Biodistribution in NMRI mouse blood at 1.1 to 2.6 MBq, iv after 5 mins by gamma counting; assay type: ADME, organism-based; details: in vivo
Intestine [36] = experiment: Biodistribution in NMRI mouse intestine at 1.1 to 2.6 MBq, iv after 5 mins by gamma counting; assay type: ADME, organism-based; details: in vivo
Blood [37] = experiment: Biodistribution in NMRI mouse blood at 1.1 to 2.6 MBq, iv after 15 mins by gamma counting; assay type: ADME, organism-based; details: in vivo, 0.25 h
Bone [38] = experiment: Biodistribution in NMRI mouse bone at 1.1 to 2.6 MBq, iv after 10 mins by gamma counting; assay type: ADME, organism-based, Bone element; details: in vivo
Kidney [39] = experiment: Biodistribution in NMRI mouse kidney at 1.1 to 2.6 MBq, iv after 30 mins by gamma counting; assay type: ADME, organism-based; details: in vivo, 0.5 h
Lung [40] = experiment: Biodistribution in NMRI mouse lung at 1.1 to 2.6 MBq, iv after 30 mins by gamma counting; assay type: ADME, organism-based; details: in vivo, 0.5 h
Brain [41] = experiment: Biodistribution in NMRI mouse brain at 1.1 to 2.6 MBq, iv after 15 mins by gamma counting; assay type: ADME, organism-based; details: in vivo, 0.25 h
Spleen [42] = experiment: Biodistribution in NMRI mouse spleen at 1.1 to 2.6 MBq, iv after 5 mins by gamma counting; assay type: ADME, organism-based; details: in vivo
Heart [43] = experiment: Biodistribution in NMRI mouse heart at 1.1 to 2.6 MBq, iv after 10 mins by gamma counting; assay type: ADME, organism-based; details: in vivo

Drug metabolism (Brain [1]): Active | Drug uptake (Bone [2]): 0.93 % ID/g | Drug uptake (Lung [3]): 4.84 % ID/g | Drug uptake (Spleen [4]): 3.6 % ID/g | Drug uptake (Spleen [5]): 3.19 % ID/g | Drug uptake (Pancreas [6]): 6.88 % ID/g | Drug uptake (Bone [7]): 2.03 % ID/g | Drug uptake (Lung [8]): 4.79 % ID/g | Drug uptake (Blood [9]): 0.53 % ID/g | half-life [10]: 50 min | Drug uptake (Liver [11]): 5.67 % ID/g | Drug uptake (Heart [12]): 1.8 % ID/g | Drug uptake (Bone [13]): 2.7 % ID/g | Drug uptake (Heart [14]): 0.58 % ID/g | Drug uptake (Liver [15]): 6.78 % ID/g | Drug uptake (Kidney [16]): 4.67 % ID/g | Drug uptake (Kidney [17]): 5.86 % ID/g | Drug uptake (Pancreas [18]): 8.36 % ID/g | Drug uptake (Intestine [19]): 2.68 % ID/g | Drug uptake (Brain [20]): 2.85 % ID/g | Drug uptake (Pancreas [21]): 11.1 % ID/g | Drug uptake (Brain [22]): 4.93 % ID/g | Drug uptake (Kidney [23]): 8.23 % ID/g | Drug uptake (Intestine [24]): 2.51 % ID/g | Drug uptake (Lung [25]): 12.99 % ID/g | Drug uptake (Liver [26]): 4.13 % ID/g | Stability (Serum): > 98% | Drug uptake (Liver [27]): 7.79 % ID/g | Drug uptake (Pancreas [28]): 7.43 % ID/g | Drug uptake (Intestine [29]): 4.47 % ID/g | Drug uptake (Brain [30]): 1.47 % ID/g | Drug uptake (Heart [31]): 1.13 % ID/g | half-life [32]: 15 min | Drug uptake (Blood [33]): 1.29 % ID/g | Drug uptake (Spleen [34]): 3.13 % ID/g | Drug uptake (Blood [35]): 1.62 % ID/g | Drug uptake (Intestine [36]): 2.16 % ID/g | Drug uptake (Blood [37]): 1.23 % ID/g | Drug uptake (Bone [38]): 2.54 % ID/g | Drug uptake (Kidney [39]): 6.03 % ID/g | Drug uptake (Lung [40]): 2.68 % ID/g | Drug uptake (Brain [41]): 2.27 % ID/g | Drug uptake (Spleen [42]): 4.42 % ID/g | Drug uptake (Heart [43]): 0.52 % ID/g
Structure (SMILES): [18F]c1ccc(CN2CCN(c3ccc4c(c3)OCCO4)CC2)cn1
